Assay results published in patent publication US4831051A, “Aromatic derivatives comprising an aminoalkoxy chain, the salts thereof, the process for preparing these derivatives and salts and the application thereof in therapeutics” (Delande S.A., priority 1981, dated 1989).

Assay: acute toxicity estimated on mice (method of MILLER and TAINTER)
Conditions: mouse, in vivo, iv

**Q.** Which LD50 does the source give for `COc1ccc(OC)c(C(O)CCc2ccc(O)cc2)c1OCCN1CCCC1` (stereo not shown) [compound 13] here?
**A.** 27 mg/kg

**Q.** With `COc1c(OCCN2CCCCC2)c(C(O)CCc2ccc(O)cc2)c(OC)c2ccccc12` (stereo not shown) [compound 68, 3-parahydroxyphenyl 1-[3-(2-piperidino)ethoxy 1,4-dimethoxynaphtalenyl-2]propanol-1, hydrated] as the compound, how does the LD50 read?
**A.** 12.3 mg/kg

**Q.** Which LD50 does the source give for `COc1ccc(OC)c(C(O)CCc2ccc(O)cc2)c1OCCN1CCCCC1` (stereo not shown) [compound 10] here?
**A.** 20 mg/kg

**Q.** With `COc1ccc(OC)c(C(O)CCc2ccc(F)cc2)c1OCCN1CCCCC1` (stereo not shown) [compound 4] as the compound, how does the LD50 read?
**A.** 31 mg/kg

**Q.** Which LD50 does the source give for `COc1ccc(OC)c(C(O)CCc2ccc(O)cc2)c1OCCCN1CCCCC1` (stereo not shown) [compound 11] here?
**A.** 22 mg/kg

**Q.** For `CCN(CC)CCOc1c(OC)c(Cl)cc(OC)c1C(O)CCc1ccc(O)cc1` (stereo not shown) [compound 70], which LD50 is on record?
**A.** 14 mg/kg

**Q.** With `COc1c2c(c(OC)c(C(O)CCc3ccc(O)cc3)c1OCCN1CCCCC1)OCCO2` (stereo not shown) [compound 66] as the compound, how does the LD50 read?
**A.** 15.7 mg/kg

**Q.** With `COc1ccc(OC)c(C(O)CCc2ccc(Cl)cc2)c1OCCN1CCCCC1` (stereo not shown) [compound 5] as the compound, how does the LD50 read?
**A.** 33 mg/kg

**Q.** With `COc1ccc(OC)c(C(O)CCc2ccccc2)c1OCCN1CCCCC1` (stereo not shown) [compound 3] as the compound, how does the LD50 read?
**A.** 16 mg/kg

**Q.** For `COc1ccc(CCC(O)c2c(OC)ccc(OC)c2OCCN2CCCCC2)cc1` (stereo not shown) [compound 7], which LD50 is on record?
**A.** 27 mg/kg

**Q.** Which LD50 does the source give for `COc1ccc(OC)c(C(O)CCc2cccc(O)c2)c1OCCN1CCCCC1` (stereo not shown) [compound 9] here?
**A.** 11 mg/kg

**Q.** Which LD50 does the source give for `COc1cc(Cl)c(OC)c(OCCN2CCCCC2)c1C(O)CCc1ccc(O)cc1` (stereo not shown) [compound 69] here?
**A.** 8.6 mg/kg

**Q.** For `COc1ccc(OC)c(C(O)CCc2ccc(C)cc2)c1OCCN1CCCCC1` (stereo not shown) [compound 6], which LD50 is on record?
**A.** 31 mg/kg

**Q.** With `COc1cc(OC)c(C(O)CCc2ccc(O)cc2)c(OCCN2CCCCC2)c1OC` (stereo not shown) [compound 14] as the compound, how does the LD50 read?
**A.** 33 mg/kg

**Q.** Which LD50 does the source give for `COc1c(OC)c(OC)c(C(O)CCc2ccc(O)cc2)c(OCCN2CCCCC2)c1OC` (stereo not shown) [compound 67] here?
**A.** 32.5 mg/kg

**Q.** With `CCN(CC)CCOc1c(OC)ccc(OC)c1C(O)CCc1ccc(O)cc1` (stereo not shown) [compound 12] as the compound, how does the LD50 read?
**A.** 23 mg/kg

**Q.** Which LD50 does the source give for `COc1ccc(OC)c(C(=O)CCc2ccc(O)cc2)c1OCCN1CCCCC1` [compound 2] here?
**A.** 14 mg/kg

**Q.** With `COc1ccc(OC)c(C(O)CCc2ccccc2O)c1OCCN1CCCCC1` (stereo not shown) [compound 8] as the compound, how does the LD50 read?
**A.** 12 mg/kg

**Q.** With `COc1cc([N+](=O)[O-])c(OC)c(C(O)CCc2ccc(O)cc2)c1OCCN1CCCCC1` (stereo not shown) [compound 74] as the compound, how does the LD50 read?
**A.** 18.6 mg/kg

**Q.** With `CC(C)(Cc1ccc(O)cc1)C(O)c1ccccc1OCCN1CCCCC1` (stereo not shown) [compound 77] as the compound, how does the LD50 read?
**A.** 43 mg/kg

**Q.** Which LD50 does the source give for `COc1cc(OC)c(CCCc2ccc(O)cc2)c(OCCN2CCCCC2)c1` [compound 60] here?
**A.** 8.9 mg/kg

**Q.** Which LD50 does the source give for `COc1cc(Cl)c(OC)c(C(O)CCc2ccc(O)cc2)c1OCCN1CCCCC1` (stereo not shown) [compound 73] here?
**A.** 11.7 mg/kg

**Q.** Which LD50 does the source give for `CCCN(CCC)CCOc1c(OC)ccc(OC)c1C(O)CCc1ccc(O)cc1` (stereo not shown) [compound 62] here?
**A.** 13 mg/kg

**Q.** Which LD50 does the source give for `COc1cc(F)c(OC)c(OCCN2CCCCC2)c1C(O)CCc1ccc(O)cc1` (stereo not shown) [compound 72] here?
**A.** 3.4 mg/kg

**Q.** For `COc1cc(Cl)c(OC)c(OCCN(C(C)C)C(C)C)c1C(O)CCc1ccc(O)cc1` (stereo not shown) [compound 71], which LD50 is on record?
**A.** 11.5 mg/kg
